# Bridge positions count the residues as written; N and C are the ends. Ends that are not written are not given here. Peptide text beside a SMILES is read from it. * marks the point of attachment. Biotin = O=C1N[C@H]2[C@H](CS[C@H]2CCCCC(=O)*)N1
# Columns and labels:
# [1] = Micelle stability of lipid-oligonucleotide conjugates in presence of serum; format: physicochemical; settings: for micelle stability on increasing number of guanines: in the presence of serum, compared with lipo-G6T4-CG; for percentage of intact micelles: micelles formed in aqueous solution, in the presence of serum (FBS)
# Description: For example, in certain embodiments, a plurality of lipid conjugates is allowed to spontaneously form micelles in aqueous solution. The micelles are incubated with albumin, or a solution including albumin such as Fetal Bovine Serum (FBS). Samples can be analyzed, for example, by ELISA, size exclusion chromatography or other methods to determine if binding has occurred. Lipid conjugates can be selected as lymph node-targeting conjugates if in the presence of albumin, or a solution including albumin such as Fetal Bovine Serum (FBS), the micelles dissociate and the lipid conjugates bind to albumin as discussed above.
# In certain embodiments, the linker is one or more guanines, for example between 1-10 guanines. It has been discovered that altering the number of guanines between a cargo such as a CpG oligonucleotide, and a lipid tail controls micelle stability in the presence of serum proteins. Therefore, the number of guanines in the linker can be selected based on the desired affinity of the conjugate for serum proteins such as albumin. When the cargo is a CpG immunostimulatory oligonucleotide and the lipid tail is a diacyl lipid, the number of guanines affects the ability of micelles formed in aqueous solution to dissociate in the presence of serum: 20% of the non-stabilized micelles (lipo-G0T10-CG) (SEQ ID NO: 138) were intact, while the remaining 80% were disrupted and bonded with FBS components.
# [2] = molecular target: FMC63 IgG; experiment: ELISA of N-terminally biotinylated F12 variants on streptavidin plate, binding to FMC63 IgG; parameters: species or system mouse; settings: read-out: Kd (nM), FMC63 binding affinity of F12 variants with N-terminal flanking residues
# [3] = test system: FMC63 IgG antibody; experiment: Alanine scanning mutagenesis, flow cytometry binding to FMC63 IgG; parameters: species or system mouse; settings: yeast stained with 5 μM FMC63 IgG antibody
# Description: FIG. 11 provides a graph showing flow cytometry analysis of alanine scanning mutagenesis for […] (SEQ ID NO: 16) where each amino acid position was mutated to an alanine, or additional alanine residues (one or two) were added. Flow cytometry analysis was performed to evaluate binding to the FMC63 IgG antibody.
# To determine the effect of amino acid position on binding to FMC63, an alanine mutagenesis experiment was performed were each amino acid was mutated to alanine and binding to FMC63 was assessed. Specifically, a representative mimotope, […] (SEQ ID NO: 16), was mutated at each amino acid position to generate an alanine (SEQ ID NOs: 54-63) (Table 7). To assess the tolerance of additional alanine residues, one alanine or two alanine residues were inserted between the two cysteine residues (SEQ ID NOs: 52 and 53) to determine the impact the loop structure had on mimotope binding to FMC63. To generate mutations, two complementary oligos with the codon replaced at the desired site were denatured at 95° C. and annealed by slow cooling to 25° C. (decreasing by 0.5° C./second). The annealed oligos were treated with T4 PNK (T4 Polynucleotide Kinase) to add a terminal phosphate, and then ligated into digested pCT-CON2 vector. Positive clones having the correct oligo inserted were tested and transformed into competent EBY100 yeast cells. […]
# [4] = test system: FMC63 anti-hCD19 CAR-T cells; experiment: IFNγ secretion of CAR-T cells co-cultured with amph-mimotope coated K562 cells (ELISA); format: cell-based; settings: K562 coated with 10 μM amph-mimotope, E:T 10:1, 24 hours; compared to amphiphile only control
# Description: ID NO: 5) at 10 μM and incubated at 37° C. for 30 minutes. The labeling reaction was stopped by pelleting cells and washing with PBS. To mimic antigen presenting cells in lymph nodes, K562 cells were decorated with amph-mimotope, and then co-cultured at an effector to target (E:T) ratio of 10:1 with FMC63 expressing CAR-T cells (hCD19-CAR; SEQ ID NO: 78) for 24 hours. The hCD19-CAR was generated in part from a previously reported CAR (Pegram, H., et al. (2012) Blood 119:18 (4133-4141) and is composed of a human CD8 signal peptide (SEQ ID NO: 87), FMC63 scFV (SEQ ID NO: 70), murine CD8 hinge (SEQ ID NO: 74), a murine CD8 transmembrane domain (SEQ ID NO: 75), a murine CD28 costimulatory domain (SEQ ID NO: 76) and a murine CD3ζ intracellular domain (SEQ ID NO: 77). The overall CAR is provided in SEQ ID NO: 78. After co-culture, cells were pelleted at 2,000×g for 5 minutes, and the supernatant was harvested for IFNγ ELISA and processed following the manufacturer's protocol (Human IFNγ ELISA MAXTM Deluxe (Biolegend)).
# [5] = test system: FMC63 CAR T cells; experiment: In vivo CAR T cell proliferation in lymph nodes after amph-mimotope vaccination (cell trace violet dilution); parameters: species or system mice; settings: inguinal LNs 48 hours post-vaccination; s.c. tail base with 25 μg cyclic-di-GMP; 10 ug monovalent or 20 ug bivalent
# Description: FIG. 18A depicts a timeline for administration of CD45.1+ donor FMC63 CAR T cells to CD45.2+ recipient mice on Day 0, followed by administration of amph-mimotope or bivalent amph-mimotope on Day 1, and analysis of CAR T cell proliferation in lymph nodes harvested on Day 3 measured by cell trace violet dilution.
# FIG. 18B provides histograms measuring the proliferation of FMC63 CAR T cells isolated from mice on Day 3 as depicted in FIG. 18A. The mice were administered amph-mimotope containing a mimotope with the sequence set forth in SEQ ID NO: 128 or 129 (Amph-K-A1 or Amph-K-C2 respectively) or the bivalent mimotopes depicted in FIG. 17C (amph-bi-F12-peg8 or amph-bi-F12-peg4). Control mice were administered no amph-mimotope.
# CD45.1^+ donor FMC63 CAR T cells were prepared as described in Example 3 and labeled with cell trace violet according to manufacturer's protocol. 2×10^6 CAR T cells were administered into CD45.2^+ recipient mice via tail vein injection on Day 0. The following day, recipient mice were vaccinated by subcutaneous injection at the tail base with the following vaccine formulation: • (i) 10 ug of monovalent amph-mimotope (Amph-K-A1 or Amph-K-C2)+25 μg of cyclic-di-GMP in 1×PBS; or • (ii) 20 ug of amph-Bi-F12-mimotope (PEG4 or PEG8)+25 μg of cyclic-di-GMP in 1×PBS. […]
# [6] = test system: FMC63 scFv; experiment: Dissociation kinetics of FMC63 scFv from yeast clones (flow cytometry); format: binding, mouse; settings: yeast clones labeled, washed, incubated 0-72 hours
# Description: The yeast clones were labeled with the scFv, washed, and incubated for 0-72 hours as indicated prior to analysis.
# The dissociation kinetics following binding of the mimotopes to FMC63 were also investigated. […] The yeast were then washed, and incubated for 0-72 hours prior to analysis of the degree of FMC63 scFv labeling by flow cytometry.
# [7] = test system: FMC63; experiment: FMC63 binding of mimotope-expressing yeast after DTT treatment (flow cytometry); parameters: species or system mouse; settings: DTT 0.01-10 mM, 30 minutes, room temperature; yeast-displayed
# Description: To determine the formation of an intra-peptidyl disulfide bridge formed by the two Cys residues, mimotope expressing yeast were treated in reducing conditions and binding of the mimotope to FMC63 IgG was measured. […] Similarly, control cells expressing Aga2p (connected to the yeast surface by disulfide bridge) were treated with DTT. Following treatment, cells were labelled with biotinylated Aga2p or FMC63 and binding was measured by flow cytometry. At mild reducing conditions, Aga2p was maintained on the yeast surface while mimotope binding to FMC63 was abolished (FIG. 6). The inhibition of mimotope binding to FMC63 following treatment with a reducing agent reaffirms the formation of the disulfide bond and its importance for binding.
# Sequence of FMC63 IgG antibody (as listed by the source): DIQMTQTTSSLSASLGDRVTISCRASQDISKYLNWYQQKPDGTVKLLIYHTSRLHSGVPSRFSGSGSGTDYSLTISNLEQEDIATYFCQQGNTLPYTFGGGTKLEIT
# Sequence of FMC63 IgG antibody (as listed by the source): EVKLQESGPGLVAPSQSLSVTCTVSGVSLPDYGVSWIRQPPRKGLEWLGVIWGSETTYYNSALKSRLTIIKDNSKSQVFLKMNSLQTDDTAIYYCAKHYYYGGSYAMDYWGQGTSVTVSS
# Sequence of FMC63 scFv (as listed by the source): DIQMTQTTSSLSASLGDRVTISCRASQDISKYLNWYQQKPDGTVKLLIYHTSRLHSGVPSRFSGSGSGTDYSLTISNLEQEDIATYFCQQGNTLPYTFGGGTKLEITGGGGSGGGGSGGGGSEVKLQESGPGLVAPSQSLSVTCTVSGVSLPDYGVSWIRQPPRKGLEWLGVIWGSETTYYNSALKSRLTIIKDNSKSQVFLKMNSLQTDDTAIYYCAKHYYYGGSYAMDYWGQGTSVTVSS
molecule,measurement,setting,value
"lipo-G8T2-CG (DNA GGGGGGGGTTCG; DNA, backbone and methylation of C not given here; lipid conjugate)",micelle stability on increasing number of guanines,[1],did not further enhance micelle stability
"lipo-G6T4-CG (DNA GGGGGGTTTTCG; DNA, backbone and methylation of C not given here; lipid conjugate)",percentage of intact micelles,[1],90%
CC[C@H](C)[C@H](NC(=O)[C@H](CCCNC(=N)N)NC(=O)[C@H](CO)NC(=O)[C@H](C)NC(=O)[C@H](CO)NC(=O)CCCC[C@@H]1SC[C@@H]2NC(=O)N[C@@H]21)C(=O)N[C@H]1CSSC[C@@H](C(=O)N[C@@H](CCCCN)C(=O)N[C@@H](CCC(=O)O)C(=O)N[C@@H](CC(C)C)C(=O)O)NC(=O)[C@H](CC(N)=O)NC(=O)[C@H](Cc2c[nH]c3ccccc23)NC(=O)[C@@H]2CCCN2C1=O [SEQ ID NO: 95] (Biotin-SASRICPWNCKEL-OH; disulfide 6-10),Kd,[2],0.147 nM
"lipo-G10T0-CG (DNA GGGGGGGGGGCG; DNA, backbone and methylation of C not given here; lipid conjugate)",micelle stability on increasing number of guanines,[1],did not further enhance micelle stability
RLCPWSAACREL (Synthetic FMC63 Mimotope Mutant) [SEQ ID NO: 52],mimotope binding to FMC63 of RLCPWSCREL variants,[3],abolished
"lipo-G2T8-CG (DNA GGTTTTTTTTCG; DNA, backbone and methylation of C not given here; lipid conjugate)",percentage of intact micelles,[1],36%
"amph-mimotope (RHCPWNCSLL; SEQ ID NO: 5) (cysteine pairing not given here; also: amphiphilic lipid tail conjugated, site not given here)",CAR-T cell activation measured by IFNγ secretion,[4],significantly activated
"Amph-K-C2 (GGGSASRICPWNCKELPSPPRIFGNR; cysteine pairing not given here; also: amphiphile lipid conjugate, site not given here)",proliferation of CAR T cells in vivo (cell violet dilution),[5],observed
K-A1 (PRKHSGRICPWNCKELDNPPFIFGNR; Synthetic FMC63 mimotope (A1)),time for which FMC63 scFv labeling is retained after wash,[6],≥ 72 h
RLCPWSACREL (Synthetic FMC63 Mimotope Mutant) [SEQ ID NO: 53],mimotope binding to FMC63 of RLCPWSCREL variants,[3],abolished
CC[C@H](C)[C@H](NC(=O)[C@H](CCCNC(=N)N)NC(=O)[C@H](CO)NC(=O)[C@H](C)NC(=O)[C@H](CO)NC(=O)CNC(=O)CNC(=O)CNC(=O)CCCC[C@@H]1SC[C@@H]2NC(=O)N[C@@H]21)C(=O)N[C@H]1CSSC[C@@H](C(=O)N[C@@H](CCCCN)C(=O)N[C@@H](CCC(=O)O)C(=O)N[C@@H](CC(C)C)C(=O)O)NC(=O)[C@H](CC(N)=O)NC(=O)[C@H](Cc2c[nH]c3ccccc23)NC(=O)[C@@H]2CCCN2C1=O [SEQ ID NO: 96] (Biotin-GGGSASRICPWNCKEL-OH; disulfide 9-13),Kd,[2],0.141 nM
"lipo-G4T6-CG (DNA GGGGTTTTTTCG; DNA, backbone and methylation of C not given here; lipid conjugate)",percentage of intact micelles,[1],73%
RHCPWNCSLL [Clone A1],mimotope binding to FMC63 after DTT,[7],abolished
"lipo-G0T10-CG (DNA TTTTTTTTTTCG; DNA, backbone and methylation of C not given here; lipid conjugate)",percentage of intact micelles,[1],20%
